One may read the Ki as the equilibrium dissociation constant of an inhibitor or competing ligand from its target.

SMILES strings stand for the structures. Where a name gives a salt, the structure may show the parent alone.

Assay [1] addresses T1, D2 receptors (Chlorocebus aethiops, UniProt P52702).
T1 construct: expressed in transfected cells; host or cells: COS cells
As to the kind of experiment: D2 receptor binding, displacement of 3H-YM 09151-2. Also on record: species or system African Green monkey. As to conditions: recombinant receptors in COS cell pellets; 0.5 nM 3H-YM 09151-2; 48° C; pH 7.4. How it is done: (§1) Pellets of COS cells containing recombinantly produced D2 or D3 receptors from African Green monkey were used for the assays. The sample is homogenized in 100 volumes (w/vol) of 0.05M Tris HCl buffer at 4° C. and pH 7.4. The sample is then centrifuged at 30,000×g and resuspended and rehomogenized. The sample is then centrifuged as described and the final tissue sample is frozen until use. The tissue is resuspended 1:20 (wt/vol) in 0.05M Tris HCl buffer containing 100 mM NaCl.
(§2) Incubations are carried out at 48° C. and contain 0.4 ml of tissue sample, 0.5 nM ^3 H-YM 09151-2 and the compound of interest in a total incubation of 1.0 ml. Nonspecific binding is defined as that binding found in the presence of […] spiperone; without further additions, nonspecific binding is less than 20% of total binding. The binding characteristics of representative compounds of the invention for D2 and D3 receptor subtypes are shown in Table 2 for rat striatal homogenates.

For assay [2], the target named is T2, D3 receptors (Chlorocebus aethiops, UniProt P52703).
T2 construct: expressed in transfected cells; host or cells: COS cells
As to the kind of experiment: D3 receptor binding, displacement of 3H-YM 09151-2. On the set-up: species or system African Green monkey. As to conditions: recombinant receptors in COS cell pellets; 0.5 nM 3H-YM 09151-2; 48° C; pH 7.4. How it is done:
as §1, §2
For orientation: Loss of bound radioactivity is the signal in a displacement assay; it reports binding, not function.

T1 sequence (P52702 whole entry): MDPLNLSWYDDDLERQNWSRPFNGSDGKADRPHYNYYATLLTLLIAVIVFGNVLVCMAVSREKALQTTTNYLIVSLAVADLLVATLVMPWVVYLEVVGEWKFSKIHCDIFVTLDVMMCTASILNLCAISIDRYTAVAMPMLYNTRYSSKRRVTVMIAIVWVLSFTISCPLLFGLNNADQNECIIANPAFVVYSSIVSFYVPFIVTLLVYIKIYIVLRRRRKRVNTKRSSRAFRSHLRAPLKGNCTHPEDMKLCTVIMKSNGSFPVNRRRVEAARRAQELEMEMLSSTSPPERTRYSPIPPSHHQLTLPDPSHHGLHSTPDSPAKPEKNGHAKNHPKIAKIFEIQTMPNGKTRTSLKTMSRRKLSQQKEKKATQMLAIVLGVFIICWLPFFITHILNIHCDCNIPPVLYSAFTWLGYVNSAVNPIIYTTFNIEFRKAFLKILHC
T2 sequence (P52703 whole entry): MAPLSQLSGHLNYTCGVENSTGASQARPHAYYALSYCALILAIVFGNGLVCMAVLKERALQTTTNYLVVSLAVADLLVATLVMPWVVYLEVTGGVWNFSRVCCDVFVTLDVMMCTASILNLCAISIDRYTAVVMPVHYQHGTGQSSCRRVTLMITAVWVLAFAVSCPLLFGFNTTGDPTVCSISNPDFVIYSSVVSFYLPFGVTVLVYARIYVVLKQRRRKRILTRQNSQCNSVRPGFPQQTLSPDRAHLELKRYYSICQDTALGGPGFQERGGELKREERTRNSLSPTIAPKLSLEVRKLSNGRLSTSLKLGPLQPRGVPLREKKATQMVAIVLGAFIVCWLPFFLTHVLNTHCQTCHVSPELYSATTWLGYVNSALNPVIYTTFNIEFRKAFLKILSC

With `O=C(NCCCCN1CCN(c2cccc(Cl)c2Cl)CC1)c1ccc2oc3ccccc3c2c1` [Compound 1, N-(1-{4-[4-(2,3-Dichlorophenyl)piperazin-1-yl]}butyl)-2-dibenzofurancarboxamide hydrochloride], the values for the Ki in assay [1] and in assay [2] were 0.157 µM and 0.001 µM, respectively.

With `O=C(NCCCCN1CCN(c2cccc3ccccc23)CC1)c1ccc2oc3ccccc3c2c1` [Compound 2, N-(1-{4-[4-(1-Naphthyl)piperazin-1-yl]}butyl)-2-dibenzofurancarboxamide hydrochloride], the values for the Ki in assay [1] and in assay [2] were 0.201 µM and 0.0013 µM, respectively.

Values taken from patent US5710274A, “N-aminoalkyldibenzofurancarboxamides; new dopamine receptor subtype specific ligands” (Neurogen Corporation, priority 1996, dated 1998).
